The subject of this assay is ATDC5 cells. Briefly: Chondrogenesis activity assay in ATDC5 cells (collagen type II induction, immunofluorescence). The note with it: Mus musculus; for EC50: collagen type II induction in ATDC5 cells, concentration reaching 50% of maximum induction; for Emax: maximum percent induction of collagen type II relative to internal reference compound at 10 μM, ATDC5 cells. Type of assay: cell-based, mouse. The protocol:
A) Chondrogenesis Activity Assay in ATDC5 Cells
The chondrogenic potential of the compounds of the invention was determined using clonal mouse chondrogenic ATDC5 cells (T. Atsumi et al., Cell Differ. Dev. 1990, 30, 109-116). ATDC5 cells are derived from mouse embryonic AT805 teratocarcinoma cells and are used frequently to study the multistep chondrogenic differentiation process from precursor cells into chondrocytes (C. Shukunami et al., Exp. Cell Res. 1998, 241, 1-11; H. Aklyami et al., J. Bone Miner. Res. 1996, 11, 22-28; H. Akiyami et al., Biochem. Biophys. Res. Commun. 1997, 235, 142-147; C. Shukunami et al., J. Cell Biol. 1996, 133, 457-468; C. Shukunami et al., J. Bone Miner. Res. 1997, 12, 1174-1188). Undifferentiated ATDC5 cells grow in vitro until confluence, showing a fibroblast-like morphology. In the presence of insulin, cells undergo transient condensation and form numerous nodular structures (cartilage nodules). The cartilagenous nature of these nodules was shown by Alcian Blue staining as evidence of the production of proteoglycan (aggrecan) and collagen type II expression (by expression analysis), both molecular markers of chondrocytes (C. Shukunami et al., J. Cell Biol. 1996, 133, 457-468).
Chondrogenic differentiation of ATDC5 cells into chondrocytes by the compounds of the invention was determined by measuring the induction of type II collagen protein as a marker of chondrocytes, a structural component of the extracellular matrix which constitutes more than 80% of cartilage mass (D. R. Eyre, Clin. Orthop. Relat. Res. 2004, 427 Suppl, S118-S122). ATDC5 cells were obtained from RIKEN and cultured as monolayer in basal culture medium (Dulbecco's Modified Eagle Medium/Nutrient Mixture F-12 (DMEM/F12, Invitrogen, #31331-093) supplemented with 10 μg/ml Transferrin (Roche, #10652 202001), 3×10E−8 M sodium seienite (Sigma, #S-5261) and 5% Fetal Calf Serum (FCS Gold, PAA, #A15-251)), at 37° C., and 5% CO2 in plastic flasks of 75 cm^2 or 300 cm^2 subconfluently for propagation. ATDC5 cells were harvested and resuspended in differentiation culture medium that consisted of basal culture medium complemented with 10 μg/ml insulin (Sigma, #19278), to initiate chondrogenic differentiation. For studying the effect of test compounds, the ATDC5 cells were plated in 96-well plates (3.0×10E4 cells per well in 200 μl of differentiation culture medium). Test compounds dissolved in DMSO were added to yield increasing compound concentrations, typically from 40 nM to 10 μM, and a final DMSO concentration of 0.1%. On each 96-well plate, control wells containing no test compound but the same concentration of DMSO, i.e. untreated cells, were included and used as reference for the determination of the effect of the test compounds on the cells, and wells containing an internal reference compound at a concentration of 10 μM were included and used as positive control and for standardizing the results. Cells in the wells were incubated for 4 days at 37° C., and 5% CO2, followed by quantification of intracellular collagen type II.
Quantification of collagen type II in the ATDC5-cells was done by immunofluorescence staining of collagen type II, and fluorescence intensity was measured using a cellular high content imaging system (ImageXpress, Molecular Device). For immunofluorescence staining of intracellular collagen, medium was removed after compound incubation and cells were fixed with 200 μl/well methanol/water (95%/5%). Cells were permeabilized in 200 μl/well phosphate-buffered saline (PBS) containing 0.2% Triton X100 for 15 min and, after removal of the solution, blocked for 30 min with 200 μl/well PBS/0.2% Triton X100 containing 1% bovine serum albumin (BSA) to avoid unspecific binding. After the blocking step, the solution was removed and collagen type II staining solution was added. […]

For `CNc1ncc(-c2cc(Cl)cc3c2[nH]c2c(C)nccc23)cn1` [Example 157, [5-(6-Chloro-1-methyl-9H-pyrido[3,4-b]indol-8-yl)-pyrimidin-2-yl]-methyl-amine], the concentration for a half-maximal effect (EC50) – broadly, the concentration giving half of the maximal effect – was over 10000 nM and the Emax (commonly the greatest response seen or fitted, relative to the assay's reference) lay in the range of 20 to 50%.
The molecule `Clc1cc(-c2ccc(Cl)nc2)c2c(c1)c1ccncc1n2CC1CCC1` [Example 279, 6-Chloro-8-(6-chloro-pyridin-3-yl)-9-cyclobutylmethyl-9H-pyrido[3,4-b]indole] returned an EC50 of 1800 nM and an Emax of 20 to 50%.
As to `Cc1ccc(-c2cc(Cl)cc3c4ccncc4n(CC(F)(F)F)c23)cn1` [Example 68, 6-Chloro-8-(6-methyl-pyridin-3-yl)-9-(2,2,2-trifluoro-ethyl)-9H-pyrido[3,4-b]indole], the EC50 was found to be 7600 nM and the Emax is 50 to 80%.
`CCn1c2c(-c3ccnn3Cc3cccnc3C)cc(Cl)cc2c2ccnc(C)c21` [Example 7, 6-Chloro-9-ethyl-1-methyl-8-[2-(2-methyl-pyridin-3-ylmethyl)-2H-pyrazol-3-yl]-9H-pyrido[3,4-b]indole] returned a half-maximal effective concentration (EC50) of over 3300 nM and a maximal effect (Emax) of under 20%.
For `COc1ccc(-c2cc(C)cc3c2[nH]c2c(C)nccc23)cc1` [Example 14, 8-(4-Methoxy-phenyl)-1,6-dimethyl-9H-pyrido[3,4-b]indole], the response was half-maximal at 860 nM (EC50) and the Emax is over 80%.
`Cc1nccc2c1[nH]c1c(-c3ccc4c(c3)CC(C)O4)cc(Cl)cc12` (stereo not shown) [Example 23, 6-Chloro-1-methyl-8-(2-methyl-2,3-dihydro-benzofuran-5-yl)-9H-pyrido[3,4-b]indole] gave an EC50 of 1600 nM and a maximal response (Emax) of 50 to 80%.
For the molecule `Cc1nccc2c1[nH]c1c(-c3ccc(N4CCOCC4)nc3)cc(Cl)cc12` [Example 96, 6-Chloro-1-methyl-8-(6-morpholin-4-yl-pyridin-3-yl)-9H-pyrido[3,4-b]indole], the EC50 turned out to be 850 nM and the Emax was 50 to 80%.
As for `CCn1c2c(-c3cc(-c4ccccc4)no3)cc(Cl)cc2c2ccnc(C)c21` [Example 18, 6-Chloro-9-ethyl-1-methyl-8-[3-phenyl-isoxazol-5-yl)-9H-pyrido[3,4-b]indole], the EC50 was 1000 nM and the maximal response (Emax) is over 80%.
Consider `FC(F)(F)Cn1c2cnccc2c2cc(Cl)cc(-c3ccc(Cl)s3)c21` [Example 134, 6-Chloro-8-(5-chloro-thiophen-2-yl)-9-(2,2,2-trifluoro-ethyl)-9H-pyrido[3,4-b]indole], for which the concentration giving a half-maximal response (EC50) was over 10000 nM and the Emax is under 20%.
`Cc1nccc2c1[nH]c1c(-c3cccc(OCc4ccc(C(F)(F)F)o4)c3)cc(Cl)cc12` [Example 277, 6-Chloro-1-methyl-8-[3-(5-trifluoromethyl-furan-2-ylmethoxy)-phenyl]-9H-pyrido[3,4-b]indole] registered an EC50 of over 3300 nM and an Emax of under 20%.
Taken in the same sequence, the figures for `FC(F)(F)Cn1c2cnccc2c2cc(Cl)cc(-c3cnn(Cc4ccccn4)c3)c21` [Example 168, 6-Chloro-8-(1-pyridin-2-ylmethyl-1H-pyrazol-4-yl)-9-(2,2,2-trifluoro-ethyl)-9H-pyrido[3,4-b]indole] were 990 nM and over 80%.
Taken in the same sequence, the figures for `COc1ccc(-c2cc(Cl)cc3c2[nH]c2c(C)nccc23)c(C)c1C` [Example 187, 6-Chloro-8-(4-methoxy-2,3-dimethyl-phenyl)-1-methyl-9H-pyrido[3,4-b]indole] were 2200 nM and over 80%.
In turn, `Cc1nccc2c1[nH]c1c(-c3cnc(N)nc3)cc(Cl)cc12` [Example 154, 5-(6-Chloro-1-methyl-9H-pyrido[3,4-b]indol-8-yl)-pyrimidin-2-ylamine] yielded an EC50 of 8800 nM and an Emax of 20 to 50%.
For `Cc1nccc2c1[nH]c1c(-c3cccc(OCc4nccc5ccccc45)c3)cc(Cl)cc12` [Example 269, 6-Chloro-8-[3-(isoquinolin-1-ylmethoxy)-phenyl]-1-methyl-9H-pyrido[3,4-b]indole], the half-maximal effective concentration (EC50) was over 3300 nM and the maximum response (Emax) lay in the range of 20 to 50%.
Taken in the same sequence, the figures for `Cc1nccc2c3cc(Cl)cc(-c4ccc(N5CCCC5)nc4)c3n(CC3CC3)c12` [Example 50, 6-Chloro-9-cyclopropylmethyl-1-methyl-8-(6-pyrrolidin-1-ylpyridin-3-yl)-9H-pyrido[3,4-b]indole] were 130 nM and under 20%.
`Cc1nccc2c3cc(Cl)cc(-c4cccnc4Cl)c3n(CC3CC3)c12` [Example 284, 6-Chloro-8-(2-chloro-pyridin-3-yl)-9-cyclopropylmethyl-1-methyl-9H-pyrido[3,4-b]indole] returned a concentration giving a half-maximal response (EC50) of 4200 nM and a maximal effect (Emax) of under 20%.
Turning to `CCn1c2c(-c3ccn(Cc4cccnc4C)n3)cc(Cl)cc2c2ccnc(C)c21` [Example 6, 6-Chloro-9-ethyl-1-methyl-8-[1-(2-methyl-pyridin-3-ylmethyl)-1H-pyrazol-3-yl]-9H-pyrido[3,4-b]indole], the EC50 was 2200 nM and the Emax lay in the range of 50 to 80%.
Taken in the same sequence, the figures for `COc1cc(OC)nc(COc2ccc(-c3cc(Cl)cc4c3[nH]c3c(C)nccc34)cc2)n1` [Example 275, 6-Chloro-8-[4-(4,6-dimethoxy-pyrimidin-2-ylmethoxy)-phenyl]-1-methyl-9H-pyrido[3,4-b]indole] were 300 nM and over 80%.
On to `COc1ccc(-c2cc(Cl)cc3c2[nH]c2c(C(F)(F)F)nccc23)cc1` [Example 155, 6-Chloro-8-(4-methoxy-phenyl)-1-trifluoromethyl-9H-pyrido[3,4-b]indole], for which the EC50 is over 3300 nM and the Emax is under 20%.
For the molecule `Cc1nccc2c1[nH]c1c(-c3cccc(OCc4ccc5ccccc5n4)c3)cc(Cl)cc12` [Example 260, 6-Chloro-1-methyl-8-[3-(quinolin-2-ylmethoxy)-phenyl]-9H-pyrido[3,4-b]indole], the 50% effective concentration (EC50) is over 1100 nM and the Emax was under 20%.
Turning to `CCn1c2c(-c3ccc(Cl)cc3)cc(Cl)cc2c2ccnc(C)c21` [Example 148, 6-Chloro-8-(4-chloro-phenyl)-9-ethyl-1-methyl-9H-pyrido[3,4-b]indole], the half-maximal effective concentration (EC50) came out at 46 nM and the Emax is over 80%.
`COc1ccc(-c2cc(Cl)cc3c4ccncc4n(C4CC4)c23)cc1` [Example 289, 6-Chloro-9-cyclopropyl-8-(4-methoxy-phenyl)-9H-pyrido[3,4-b]indole] came in with an EC50 of 750 nM and an Emax of over 80%.
Consider `FC(F)(F)Cn1c2cnccc2c2cc(Cl)cc(-c3cn[nH]c3)c21` [Example 144, 6-Chloro-8-(1H-pyrazol-4-yl)-9-(2,2,2-trifluoro-ethyl)-9H-pyrido[3,4-b]indole], for which a half-maximal effect (EC50) was put at 580 nM and the Emax is under 20%.
Regarding `COCCn1c2cnccc2c2cc(Cl)cc(-c3ccc(OC)cc3)c21` [Example 201, 6-Chloro-9-(2-methoxy-ethyl)-8-(4-methoxy-phenyl)-9H-pyrido[3,4-b]indole], the concentration for a half-maximal effect (EC50) was found to be 600 nM and the maximal response (Emax) was over 80%.
`CCn1c2c(-c3cccc(C(N)=O)c3)cc(Cl)cc2c2ccnc(C)c21` [Example 220, 3-(6-Chloro-9-ethyl-1-methyl-9H-pyrido[3,4-b]indol-8-yl)-benzamide] had an EC50 of over 10000 nM and an Emax of 20 to 50%.
In the case of `Cc1nccc2c1[nH]c1c(-c3ccc(N4CCOC4=O)nc3)cc(Cl)cc12` [Example 110, 3-[5-(6-Chloro-1-methyl-9H-pyrido[3,4-b]indol-8-yl)-pyridin-2-yl]-oxazolidin-2-one], the EC50 was over 10000 nM and the maximal response (Emax) is 20 to 50%.

Source of the values: patent publication US12275733B2, “Substituted pyrido[3,4-b]indoles for the treatment of cartilage disorders” (Sanofi, priority 2016, dated 2025).
